A short description of series [1]: in vivo. As to conditions: mouse.
Series [2] in a line: Antitumor activity against human HCT116 cells xenografted in SCID mouse assessed as decrease in […] positive cells at 25 mg/kg, sc after 24 hrs infusion schedule. The note with it: HCT-116, sc. (A xenograft is tissue or cells of one species grown in another, often human tumour cells in immunodeficient mice.)
A further series deals with T1, Aurora kinase C (Homo sapiens, UniProt Q9UQB9).
T1 sequence (Q9UQB9 whole entry): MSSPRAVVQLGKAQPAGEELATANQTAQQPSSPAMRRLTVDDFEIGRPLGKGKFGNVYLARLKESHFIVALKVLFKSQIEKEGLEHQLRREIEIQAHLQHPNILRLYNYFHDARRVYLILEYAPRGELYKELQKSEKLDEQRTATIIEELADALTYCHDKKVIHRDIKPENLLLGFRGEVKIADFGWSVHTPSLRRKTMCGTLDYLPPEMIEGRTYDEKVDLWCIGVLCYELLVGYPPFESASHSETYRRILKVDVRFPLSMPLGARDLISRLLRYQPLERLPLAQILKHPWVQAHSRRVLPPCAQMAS

A further series concerns the target Aurora kinase B (Homo sapiens, UniProt Q96GD4).
The nature of series [3]: in vitro. As to conditions: mouse, liver microsomes. In general terms: Liver microsomes are vesicles of endoplasmic reticulum, rich in cytochrome P450 enzymes.
Description: Metabolic stability mouse liver microsomes assessed as stability at 5 uM by LC/MS-MS analysis
In the next series the test system is PBMC. Description: cells. As to conditions: Homo sapiens, 96 h.
Series [4] can be described thus: Plasma concentration in human HCT116 cells xenografted in SCID mouse at 50 mg/kg/day, sc infusion after 8 hrs.
Series [5] in a line: in vivo. The note with it: mouse. This is another data set of the same source.
Description: Volume of distribution in mouse
Series [6] can be described thus: in vitro. As to conditions: human, liver microsomes.
Description: Metabolic stability human liver microsomes assessed as stability at 5 uM by LC/MS-MS analysis
The nature of series [7]: Antitumor activity against human HCT116 cells xenografted in SCID mouse assessed as tumor growth at 25 mg/kg, sc after 24 hrs infusion schedule. As to conditions: route subcutaneous.
For the next series, the target named is Cytochrome P450 3A4 (Homo sapiens, UniProt P08684).
Sequence of Cytochrome P450 3A4 (P08684 whole entry, the tested form may be a part): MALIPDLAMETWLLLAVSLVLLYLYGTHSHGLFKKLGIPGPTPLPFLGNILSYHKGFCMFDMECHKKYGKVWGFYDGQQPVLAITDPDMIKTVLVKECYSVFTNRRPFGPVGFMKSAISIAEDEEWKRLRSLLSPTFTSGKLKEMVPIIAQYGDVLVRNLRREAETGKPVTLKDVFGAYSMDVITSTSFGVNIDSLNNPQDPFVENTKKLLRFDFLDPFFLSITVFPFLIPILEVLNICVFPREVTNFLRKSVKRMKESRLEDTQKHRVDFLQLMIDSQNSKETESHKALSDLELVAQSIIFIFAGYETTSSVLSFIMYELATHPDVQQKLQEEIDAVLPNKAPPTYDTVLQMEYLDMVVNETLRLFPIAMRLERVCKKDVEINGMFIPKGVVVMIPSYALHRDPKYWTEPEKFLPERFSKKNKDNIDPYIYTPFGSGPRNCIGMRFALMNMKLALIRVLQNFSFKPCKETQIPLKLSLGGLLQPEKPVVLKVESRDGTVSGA
Series [8] is described as follows: Antitumor activity against human HCT116 cells xenografted in SCID mouse assessed as decrease in […] positive cells at 25 mg/kg/day, sc after 48 hrs infusion schedule. As to conditions: HCT-116, sc.
Another series deals with HeLa. The series is described as follows: cells. The note with it: Homo sapiens.
Series [9] is described as follows: in vivo. As to conditions: mouse, po.
Description: Oral bioavailability in mouse
Series [10] in a line: Antitumor activity against human HCT116 cells xenografted in SCID mouse assessed as tumor growth at 25 mg/kg/day, sc after 48 hrs infusion schedule. As to conditions: route subcutaneous.
A short description of series [11]: in vitro. As to conditions: human, Caco-2.
Description: Permeability across human Caco2 cells
A short description of series [12]: Antitumor activity against human HCT116 cells xenografted in SCID mouse assessed as decrease in […] positive cells at 50 mg/kg, sc after 24 hrs infusion schedule. The note with it: HCT-116, sc.
For another series, the target named is MAP kinase p38 (Homo sapiens, UniProt O15264+Q15759+Q16539+P53778).
For series [13], the target named is Insulin-like growth factor 1 receptor (Homo sapiens, UniProt P08069).
Sequence of Insulin-like growth factor 1 receptor (P08069 31-736 limits assumed): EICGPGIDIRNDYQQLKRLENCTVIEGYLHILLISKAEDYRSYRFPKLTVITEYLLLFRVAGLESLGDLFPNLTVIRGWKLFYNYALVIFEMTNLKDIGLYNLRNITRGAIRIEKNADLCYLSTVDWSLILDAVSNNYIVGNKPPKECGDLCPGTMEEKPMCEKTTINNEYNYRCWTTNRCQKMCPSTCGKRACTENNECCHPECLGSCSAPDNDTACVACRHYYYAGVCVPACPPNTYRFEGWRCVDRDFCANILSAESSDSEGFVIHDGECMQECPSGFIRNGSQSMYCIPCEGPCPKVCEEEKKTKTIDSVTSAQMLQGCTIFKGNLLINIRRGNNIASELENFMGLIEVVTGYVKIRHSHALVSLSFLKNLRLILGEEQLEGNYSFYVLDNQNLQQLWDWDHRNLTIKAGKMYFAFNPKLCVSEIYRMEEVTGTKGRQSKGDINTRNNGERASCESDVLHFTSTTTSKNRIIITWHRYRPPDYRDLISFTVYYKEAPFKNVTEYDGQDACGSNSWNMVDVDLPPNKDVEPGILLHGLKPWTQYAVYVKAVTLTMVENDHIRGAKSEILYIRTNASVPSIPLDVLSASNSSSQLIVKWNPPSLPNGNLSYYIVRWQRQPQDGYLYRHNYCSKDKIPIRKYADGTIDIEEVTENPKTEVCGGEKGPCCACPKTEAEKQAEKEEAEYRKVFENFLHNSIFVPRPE
Sequence of Insulin-like growth factor 1 receptor (P08069 741-1367 limits assumed): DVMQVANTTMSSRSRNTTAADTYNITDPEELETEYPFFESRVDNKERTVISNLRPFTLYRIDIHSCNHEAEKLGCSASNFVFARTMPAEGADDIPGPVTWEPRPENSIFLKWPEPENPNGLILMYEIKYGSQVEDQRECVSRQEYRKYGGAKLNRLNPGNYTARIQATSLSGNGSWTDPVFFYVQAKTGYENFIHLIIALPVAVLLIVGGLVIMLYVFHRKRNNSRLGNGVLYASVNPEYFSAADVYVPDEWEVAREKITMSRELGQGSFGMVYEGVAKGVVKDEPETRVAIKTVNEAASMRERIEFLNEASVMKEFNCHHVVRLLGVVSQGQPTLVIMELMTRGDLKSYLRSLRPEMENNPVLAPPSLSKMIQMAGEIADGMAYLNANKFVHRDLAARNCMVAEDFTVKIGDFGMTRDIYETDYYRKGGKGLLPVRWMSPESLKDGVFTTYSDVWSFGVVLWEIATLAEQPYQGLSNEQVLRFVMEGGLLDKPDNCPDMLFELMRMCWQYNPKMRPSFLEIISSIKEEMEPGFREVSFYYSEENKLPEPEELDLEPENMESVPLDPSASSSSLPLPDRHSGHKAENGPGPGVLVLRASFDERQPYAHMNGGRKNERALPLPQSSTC
Description: Inhibition of IGF1R (unknown origin)
The target in another series is Focal adhesion kinase 1 (Homo sapiens, UniProt Q05397).
Sequence of Focal adhesion kinase 1 (Q05397 whole entry): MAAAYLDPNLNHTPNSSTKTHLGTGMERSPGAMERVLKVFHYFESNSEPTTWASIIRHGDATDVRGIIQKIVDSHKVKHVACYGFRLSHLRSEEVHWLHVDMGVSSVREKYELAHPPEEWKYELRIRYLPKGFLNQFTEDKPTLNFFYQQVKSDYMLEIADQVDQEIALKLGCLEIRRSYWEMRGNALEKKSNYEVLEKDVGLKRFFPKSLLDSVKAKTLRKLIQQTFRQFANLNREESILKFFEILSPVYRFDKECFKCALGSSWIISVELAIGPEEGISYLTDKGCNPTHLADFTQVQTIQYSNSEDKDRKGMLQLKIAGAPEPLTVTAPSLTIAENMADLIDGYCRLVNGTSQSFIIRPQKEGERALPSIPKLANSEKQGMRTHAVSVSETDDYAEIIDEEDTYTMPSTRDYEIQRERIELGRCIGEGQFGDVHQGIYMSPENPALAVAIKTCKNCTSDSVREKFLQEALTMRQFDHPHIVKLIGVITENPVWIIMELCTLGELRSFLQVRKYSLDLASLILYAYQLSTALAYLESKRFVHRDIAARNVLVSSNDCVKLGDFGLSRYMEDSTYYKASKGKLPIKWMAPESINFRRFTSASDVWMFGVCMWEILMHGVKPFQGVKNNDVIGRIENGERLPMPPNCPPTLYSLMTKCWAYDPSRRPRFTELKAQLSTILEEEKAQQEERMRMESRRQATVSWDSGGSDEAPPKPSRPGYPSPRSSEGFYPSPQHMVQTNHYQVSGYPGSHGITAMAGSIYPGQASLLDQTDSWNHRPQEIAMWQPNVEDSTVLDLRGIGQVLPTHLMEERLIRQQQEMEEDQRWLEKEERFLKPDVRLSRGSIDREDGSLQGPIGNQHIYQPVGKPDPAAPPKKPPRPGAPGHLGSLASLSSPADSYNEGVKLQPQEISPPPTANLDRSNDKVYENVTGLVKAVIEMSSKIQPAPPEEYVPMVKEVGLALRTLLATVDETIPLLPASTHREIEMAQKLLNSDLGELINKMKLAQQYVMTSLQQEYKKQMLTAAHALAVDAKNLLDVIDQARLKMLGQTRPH
For a further series, the target named is Angiopoietin-1 receptor (Homo sapiens, UniProt Q02763).
Sequence of Angiopoietin-1 receptor (Q02763 whole entry): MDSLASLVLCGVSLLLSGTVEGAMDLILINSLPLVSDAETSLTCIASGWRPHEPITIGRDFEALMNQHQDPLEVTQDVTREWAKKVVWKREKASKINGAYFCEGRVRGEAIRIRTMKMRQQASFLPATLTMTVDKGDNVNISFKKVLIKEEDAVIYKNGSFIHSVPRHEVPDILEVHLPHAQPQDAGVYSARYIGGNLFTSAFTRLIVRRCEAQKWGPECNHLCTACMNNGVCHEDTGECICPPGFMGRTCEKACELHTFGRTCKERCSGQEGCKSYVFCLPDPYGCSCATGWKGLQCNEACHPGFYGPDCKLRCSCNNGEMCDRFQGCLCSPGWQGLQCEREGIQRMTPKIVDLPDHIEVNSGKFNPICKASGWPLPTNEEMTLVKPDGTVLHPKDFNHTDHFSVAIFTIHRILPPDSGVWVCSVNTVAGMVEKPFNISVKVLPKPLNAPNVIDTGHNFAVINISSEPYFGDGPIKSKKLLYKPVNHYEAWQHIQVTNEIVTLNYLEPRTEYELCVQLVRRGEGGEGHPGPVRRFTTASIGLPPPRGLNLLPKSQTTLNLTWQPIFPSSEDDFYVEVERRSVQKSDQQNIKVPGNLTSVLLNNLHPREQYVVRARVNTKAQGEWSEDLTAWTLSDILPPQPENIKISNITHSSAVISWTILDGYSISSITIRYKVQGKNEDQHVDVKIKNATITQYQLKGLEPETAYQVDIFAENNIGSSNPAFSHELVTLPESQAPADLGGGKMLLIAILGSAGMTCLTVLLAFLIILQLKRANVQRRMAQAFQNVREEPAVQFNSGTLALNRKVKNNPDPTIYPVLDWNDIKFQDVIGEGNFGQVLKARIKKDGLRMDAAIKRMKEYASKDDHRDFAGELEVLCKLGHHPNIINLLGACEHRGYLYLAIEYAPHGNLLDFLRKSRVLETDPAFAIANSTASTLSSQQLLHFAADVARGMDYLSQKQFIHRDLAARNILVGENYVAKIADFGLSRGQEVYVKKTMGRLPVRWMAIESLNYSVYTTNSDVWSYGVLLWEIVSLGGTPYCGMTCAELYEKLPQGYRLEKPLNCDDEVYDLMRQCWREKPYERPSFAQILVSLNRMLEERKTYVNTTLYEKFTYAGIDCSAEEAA

Broadly, the half-life is the time in which the quantity being followed falls by half. What is called inhibition in vivo is the percentage by which the read-out fell short of the control. In general, IC50 refers to the concentration that inhibits the measured activity by half. As usually defined, the share remaining is the share of the starting amount still present when the sample was taken. Lower therefore signals a greater loss. By Vd is commonly meant the apparent volume that relates the amount in the body to the concentration in plasma or blood. High values mean wide distribution into tissue, low ones little distribution into tissue. For orientation: Ki means a dissociation constant, usually derived from enzyme kinetics or from competition with a known ligand. A lower Ki goes with tighter binding. A word on the bioavailability: it is dose-corrected exposure relative to a reference, in per cent. The low end stands for poor availability, the high end for good availability. What is called Papp is the rate of passage across a membrane or cell layer, normalised by area and donor concentration. Higher therefore signals fast passage.

SMILES strings stand for the structures. Where only a bound is given, the exact number is not on record here.

Sequence of Aurora kinase B (Q96GD4 whole entry): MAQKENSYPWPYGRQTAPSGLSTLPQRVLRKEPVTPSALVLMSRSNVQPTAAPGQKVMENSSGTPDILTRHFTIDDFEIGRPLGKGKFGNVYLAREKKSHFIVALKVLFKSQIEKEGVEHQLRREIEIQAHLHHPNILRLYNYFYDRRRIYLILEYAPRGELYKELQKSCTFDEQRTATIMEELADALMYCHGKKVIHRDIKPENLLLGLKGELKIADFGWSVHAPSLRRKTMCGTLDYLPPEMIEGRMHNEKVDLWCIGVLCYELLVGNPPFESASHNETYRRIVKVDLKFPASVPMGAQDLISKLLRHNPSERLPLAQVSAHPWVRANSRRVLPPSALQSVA
Description for Angiopoietin-1 receptor: Inhibition of TIE-2 (unknown origin)
Description for Aurora kinase B: Inhibition of poly-histidine tagged full length recombinant aurora B (unknown origin) assessed as phosphorylation of NuMA-histidine substrate by scintillation counting analysis
Description for Aurora kinase C: Inhibition of poly-histidine tagged full length recombinant aurora C (unknown origin) assessed as phosphorylation of NuMA-histidine substrate by scintillation counting analysis
Description for Cytochrome P450 3A4: Inhibition of human recombinant CYP3A4 in liver microsomes by mechanism based inhibition assay
Description for Focal adhesion kinase 1: Inhibition of FAK (unknown origin)
Description for HeLa: Antiproliferative activity against human HeLa cells assessed as 14C-thymidine incorporation by Micro-Beta radioactivity counting analysis
Description for MAP kinase p38: Inhibition of p-38 kinase (unknown origin)
Description for PBMC: Cytotoxicity against human hematological tumor PBMC assessed as viability after 96 hrs by MTS assay

The molecule `CCOC(=O)c1[nH]cc2c1NC1=C(C(=O)CCC1)[C@H]2c1cccc(Oc2nc3ccccc3[nH]2)c1` gave a half-life in the series “in vivo [1]” of 2.4 h. In series [2], the inhibition in vivo at 25 mg/kg is 19%. Also, the IC50 against Aurora kinase C is 3 nM; against Aurora kinase B, 1 nM; in the series with PBMC, above 10000 nM; with HeLa, 67 nM. Besides, the amount remaining at 5 µM in “in vitro [3]” came out at 32%; in “in vitro [6]” it was 53%. In series [4], this molecule returned a concentration at 8 h of 63 µM. In addition, the Vd in “in vivo [5]” turned out to be 0.14 L/kg. In addition, the Activity is 59% in [7] and 19% in series [10]. This molecule yielded a Ki at Cytochrome P450 3A4 of 990 nM. The inhibition in vivo at 25 mg/kg/day in series [8] turned out to be 16%. In “in vivo [9]”, this molecule registered a bioavailability of 64%. Besides, the Papp in “in vitro [11]” amounted to 6 ×10⁻⁶ cm/s. For the same molecule, the inhibition in vivo at 50 mg/kg in series [12] is 47%.
For `O=C1CNCC2=C1C(c1ccccc1F)c1c[nH]nc1N2` (racemic), the 50% inhibitory concentration (IC50) at MAP kinase p38 is above 20000 nM; in the series with HeLa it was above 10000 nM; in series [13], above 20000 nM; at Focal adhesion kinase 1, above 20000 nM; against Angiopoietin-1 receptor, above 20000 nM.

For the origin of these results see ChEMBL document CHEMBL3392969, “SAR156497, an exquisitely selective inhibitor of aurora kinases” (J Med Chem, 2015).
